Measurements from patent EP0423373A1, “STYRENE DERIVATIVE AND METHOD OF PRODUCTION THEREOF, POLYSTYRENE DERIVATIVE PRODUCED THEREFROM AND METHOD OF PRODUCING THE SAME, AND ULTRAVIOLET ABSORBENT AND COSMETICS CONTAINING SAID POLYSTYRENE DERIVATIVE AS ACTIVE INGREDIENT” (EARTH CHEMICAL CO., LTD., priority 1989, dated 1990).

Tests used:
[1] = Ultraviolet absorption spectrum; format: physicochemical; settings: ethanol solution, 10 ppm, quartz cell, optical path 10 mm
Text: The wavelength at the maximum absorption (λ max) and the molar extinction coefficient (E) were found by measuring ultraviolet absorption spectrum of an ethanol solution of the sample having a concentration of 10 ppm in a quartz cell having an optical path of 10 mm by means of a spectrophotometer (UV-200S, made by SHIMADZU CORPORATION).

skin of a quinea pig = experiment: Percutaneous absorption, diffusion cell (Franz); format: in vitro ADME; settings: 1 % aqueous solution of sodium salt, 33 C, 20 hours
Procedure: The skin of a quinea pig was peeled, washed with physiological saline and then set in a percutaneous absopriton apparatus which was made in accordance with the description in Franz, T. J, J. Invest, Dermotal 64 , 190, 1975, by means of a diffusion cell. The sample room was filled with […] of a 1 % aqueous solution of sodium salt of the obtained polystyrene derivative, and the acceptor was filled with physiological saline. After maintaining at 33 C for 20 hours while stirring with a magnetic stirrier, the physiological saline in the acceptor was taken out, and the ultraviolet absorbency was measured. As the result, when the polystyrene derivative was used, the absorption curve of the ultraviolet absorption spectrum was similar to that obtained when the physiological saline was solely used as a negative control. When a compound having a lower molecular weight (1 % aqueous solution of sodium salt of p-aminobenzoic acid) was used as a positive control, the compound was observed by the ultraviolet absorption spectrum corresponding to 95 ppm in connection.

Molar extinction coefficient (ε) [1] | Wavelength at the maximum absorption (λ max) [1] [nm] | compound observed in the acceptor by the ultraviolet absorption spectrum (skin of a quinea pig) [ppm] | SMILES
29,000 | 310 |  | C=Cc1ccc(CN(N=Cc2ccc(C(=O)O)cc2)C(=O)NC)cc1 [Example 5, p'-carboxybenzaldehyde 4-methyl-2-p-vinylbenzylsemicarbazone]
34,000 | 361 |  | C=Cc1ccc(C(=O)CC(=O)c2ccc(C(=O)O)cc2)cc1 [Example 57, 4-carboxy-4'-vinyldibenzoylmethane]
33,000 | 317 |  | C=Cc1ccc(CN(N=Cc2ccccc2)C(=S)NC)cc1 [Example 6, benzaldehyde 4-methyl-2-p-vinylbenzylthiosemicarbazone]
38,000 | 358 |  | C=Cc1ccc(CN(N=Cc2ccc(N(C)C)cc2)C(=S)NC)cc1 [Example 8, p'-dimethylaminobenzaldehyde 4-methyl-2-p-vinylbenzylthiosemicarbazone]
 |  | 95 | Nc1ccc(C(=O)O)cc1 [p-aminobenzoic acid]
39,000 | 333 |  | C=Cc1ccc(CN(N=Cc2cccs2)C(=S)NC)cc1 [Example 12, 2'-thienylaldehyde 4-methyl-2-p-vinylbenzylthiosemicarbazone]
29,000 | 306 |  | C=Cc1ccc(CN(N=Cc2ccc(C(=O)O)cc2)C(N)=O)cc1 [Example 4, p'-carboxybenzaldehyde 2-p-vinylbenzylsemicarbazone]
46,000 | 335 |  | C=Cc1ccc(CN(N=CC=Cc2ccccc2)C(=S)NC)cc1 [Example 14, cinnamaldehyde 4-methyl-2-p-vinylbenzylthiosemicarbazone]
40,000 | 332 |  | C=Cc1ccc(CNC(=S)N(C)N=Cc2ccc(C(=O)O)cc2)cc1 [Example 2, p'-carboxybenzaldehyde 2-methyl-4-P-vinylbenzylthiosemicarbazone]
41,000 | 318 |  | C=Cc1ccc(CN(N=Cc2ccc(Cl)cc2)C(=S)NC)cc1 [Example 9, p'-chlorobenzaldehyde 4-methyl-2-p-vinylbenzylthiosemicarbazone]
33,000 | 361 |  | C=Cc1ccc(C(=O)CC(=O)c2ccc(C(=O)OC)cc2)cc1 [4-methyoxycarbonyl-4'-vinyldibenzoylmethane]
34,000 | 321 |  | C=Cc1ccc(CN(N=Cc2ccco2)C(=S)NC)cc1 [Example 11, 2'-furylaldehyde 4-methyl-2-p-vinylbenzylthiosemicarbazone]
36,000 | 359 |  | C=Cc1ccc(CN(N=Cc2ccc([N+](=O)[O-])cc2)C(=S)NC)cc1 [Example 10, p'-nitrobenzaldehyde 4-methyl-2-p-vinylbenzylthiosemicarbazone]
33,000 | 317 |  | C=Cc1ccc(CN(N=Cc2ccc(C)cc2)C(=S)NC)cc1 [Example 7, p'-methylbenzaldehyde 4-methyl-2-p-vinylbenzylthiosemicarbazone]
60,000 | 348 |  | C=Cc1ccc(CN(N=Cc2ccc(C=CC(=O)O)cc2)C(=S)NC)cc1 [Example 3, p'-carboxyvinylenebenzaldehyde 4-methyl-2-p-vinylbenzylthiosemicarbazone]
36,000 | 325 |  | C=Cc1ccc(CN(N=Cc2ccncc2)C(=S)NC)cc1 [Example 13, isonicotinic aldehyde 4-methyl-2-p-vinylbenzylthiosemicarbazone]

SMILES | Molar extinction coefficient (ε) [1] | Wavelength at the maximum absorption (λ max) [1] [nm] | compound observed in the acceptor by the ultraviolet absorption spectrum (skin of a quinea pig) [ppm]
C=Cc1ccc(CN(N=Cc2ccc(C(=O)O)cc2)C(=S)NC)cc1 [Example 1, p'-carboxybenzaidehyde 4-methyl-2-p-vinylbenzylthiosemicarbazone] | 33,000 | 331 | 
